Assay results as given in BindingDB's records for patent US12404261 (Novartis, 2025).

Target: Cyclic GMP-AMP synthase (Homo sapiens, UniProt Q8N884)
Assay: Biochemical Assay
Protocol: The enzyme solution was transferred into the reagent buffer to give a final concentration of 30 nM. […] The reaction plates were then centrifuged at 1000 rpm for 1 minute and incubated at room temperature for 1 h.

Sequence of Cyclic GMP-AMP synthase (Q8N884 whole entry): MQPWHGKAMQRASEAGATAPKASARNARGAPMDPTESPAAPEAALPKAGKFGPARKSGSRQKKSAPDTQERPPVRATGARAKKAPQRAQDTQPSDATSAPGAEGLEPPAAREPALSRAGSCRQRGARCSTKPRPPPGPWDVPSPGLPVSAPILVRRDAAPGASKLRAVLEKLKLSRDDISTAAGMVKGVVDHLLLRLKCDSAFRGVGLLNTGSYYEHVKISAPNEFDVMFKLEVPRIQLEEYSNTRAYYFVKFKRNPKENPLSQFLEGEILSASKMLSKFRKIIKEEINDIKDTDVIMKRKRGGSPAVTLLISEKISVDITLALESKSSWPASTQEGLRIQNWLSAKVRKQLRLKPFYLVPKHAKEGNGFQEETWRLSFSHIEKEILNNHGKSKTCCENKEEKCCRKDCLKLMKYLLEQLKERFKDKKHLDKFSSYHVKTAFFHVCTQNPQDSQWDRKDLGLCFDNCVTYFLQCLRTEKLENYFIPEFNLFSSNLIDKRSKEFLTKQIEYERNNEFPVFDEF

SMILES	IC50 [nM]
Cn1c(-c2nnc(C(F)(F)F)[nH]2)c(-c2cn[nH]c2)c2ccc(Cl)c(C#N)c21 [US12404261, Example 27]	137
COc1cc2c(-c3cn[nH]c3)c(-c3nnc(C(CN(C)C)OC)[nH]3)n(C)c2c(F)c1Cl (configuration not stated) [US12404261, Example 75]	70
COc1cc2c(-n3ccnc3)c(-c3nnc(C(CN(C)C)OC)[nH]3)n(C)c2c(F)c1Cl (configuration not stated) [US12404261, Example 97]	104
FC(F)(F)c1nnc(-c2[nH]c3cc(Cl)c(OC4CC4)cc3c2-n2ccnc2)[nH]1 [US12404261, Example 113]	861
Cn1c(-c2nnc(C(F)(F)F)[nH]2)c(-n2ccnc2)c2cc(O)c(Cl)cc21 [US12404261, Example 115]	67
COc1cc2c(-n3ccnc3)c(-c3nnc(C(=O)N(C)C)[nH]3)n(C)c2c(C#N)c1C#N [US12404261, Example 120]	172
COCC(C1=NNC(c2c(-n3ccnc3)c3cc(OC)c(Cl)c(F)c3n2C)N1)N1CCOCC1 (configuration not stated) [US12404261, Example 126]	411
